In patent publication US5798362A, “Quinazolinyl-amino derivatives having α-antagonist activity” (Recordati S.A. Chemical and Pharmaceutical Company, priority 1994, dated 1998) one finds IC50, LD50 and ED25 data, which are given here for nine molecules.

Structures can show the parent of a compound that is named as a salt. Where two headings read alike, the source gives them in different places.

The target in data set [1] is α1-receptors ([3H]prazosin). As to the kind of experiment: [3H]Prazosin binding (α1-receptors), rat cerebral cortices. The conditions noted are these: rat cerebral cortex, 0.35 nM [3H]prazosin, 25° C., 30 min; read-out: [3H] prazosine IC50. The procedure:
Rat cerebral cortices were homogenized in 50 volumes of original wet weight of ice-cold 50 mM Tris-HCl buffer pH 7.4. The homogenates were centrifuged at 48,000 × g for 10 minutes, and the pellets were resuspended in the same volume of ice-cold buffer, centrifuged and resuspended two more times. […] The incubations were terminated by rapid filtration through Whatman GF/B, filters using a Brandel cell harvester and the filters were washed with 3×3 ml of ice-cold buffer. The radioactivity retained on the filters was determined by liquid scintillation counting. Data analysis The inhibition of specific binding of the radioligands by the tested drugs was analyzed to estimate the IC50 value by using the non-linear curve-fitting program Allfit [A. De Lean et al., Am. J. Physiol.

Another data set in a line: in vivo. The conditions noted are these: mouse. The procedure: 20-30 g b.w., were obtained from Charles River, Italy. Animals were housed with free access to food and water and maintained on forced light-dark cycle at 22°-24° C. until the day of experiments.
The acute toxicity of synthesized compounds was evaluated in female Albino Swiss mice after intraperitoneal and oral administration. Four logarithmic scaled doses of the compounds were dissolved or suspended in 0.5% Methocel and administered in a volume of 10 ml/kg to groups of 4 mice/dose. Mortality was recorded 7 days after the administration.

Data set [2] relates to dyastolic arterious pressure. The experiment in a line: Hypotensive activity in the normotensed anesthetized rat. It is filed as in vivo. Particulars: iv, endovenous administration, read-out: DE25 (dose which induces a lowering of 25% of the dyastolic arterious pressure). The procedure: (§1) Male Sprague Dawley rats (Crl: CD' BR) of 175-300 g b.w., male spontaneously hypertensive rats, Okamoto strain, female Albino Swiss mice [Crl:CD-1 (ICR) BR] 20-30 g b.w., were obtained from Charles River, Italy. Animals were housed with free access to food and water and maintained on forced light-dark cycle at 22°-24° C. until the day of experiments.
(§2) Evaluation of the antihypertensive activity in chateterized spontaneously hypertensive rat (SH) chronic awake and of the hypotensive activity in the normotensed anesthethized rat
Normotensed rats with were prepared surgically at the moment of the test, after anesthesia with pentobarbital. Suitable chateters were introduced in the left carotid artery and the right jugular vein. The arterious chateter end was connected to a pressure transductor which sends the signal to a polygraph preamplifier. About 30' before the administration the arterious pressure was monitored and the registration of the parameters was performed after the administration, at various time according to the test protocol.
For the endovenous administration the administered volum was 0.5-1 ml/Kg, while for the oral administration was 5 ml/Kg.
Evaluation of data: in so far as the espression of the results is concerned, the pressure data were reported as percentage of the variation in respect to the base values.

The test system of data set [3] is dyastolic arterious pressure. The experiment in a line: Antihypertensive activity in catheterized awake spontaneously hypertensive rat (SHR). The class given is in vivo. The conditions noted are these: oral administration, read-out: DE25 (dose which induces a lowering of 25% of the dyastolic arterious pressure). The procedure:
as §1, §2
The SH rats are surgically prepared at least 24 hours before the test. The surgical operation was performed under neuroleptoanalgesia or barbituric anesthesia; the right carotid artery was exposed and a chateter suitable in dimensions and material was introducted in the vessel up to the aortic arch. […]
For endovenous administrations a second chateter similar to the one above described was introduced during the surgical operation into the left jugular vein and brought to the exterior as the arterious chateter. […] About 30' before administration the arterious pressure was monitored and the registration of the parameters was performed after administration at different times according to the test protocol. […]

A further data set has as its target T1, cloned α1A adrenoceptor (Bos taurus, UniProt P18130).
T1 construct: expressed in transfected cells; host or cells: COS-7 (transient)
T1 sequence (P18130 1-466): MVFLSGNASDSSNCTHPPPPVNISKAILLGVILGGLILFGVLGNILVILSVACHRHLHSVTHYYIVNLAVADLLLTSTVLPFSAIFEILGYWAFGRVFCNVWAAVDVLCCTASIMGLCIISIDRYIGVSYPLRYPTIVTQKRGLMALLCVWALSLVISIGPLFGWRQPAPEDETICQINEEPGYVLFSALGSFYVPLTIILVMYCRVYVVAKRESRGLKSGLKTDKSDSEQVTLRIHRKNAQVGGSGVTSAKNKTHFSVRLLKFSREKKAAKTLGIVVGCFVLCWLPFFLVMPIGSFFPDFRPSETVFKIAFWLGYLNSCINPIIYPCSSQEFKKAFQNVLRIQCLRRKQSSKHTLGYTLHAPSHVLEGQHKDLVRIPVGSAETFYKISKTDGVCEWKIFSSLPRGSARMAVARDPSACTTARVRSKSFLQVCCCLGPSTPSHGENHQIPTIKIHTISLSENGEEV
As to the kind of experiment: Radioligand binding, cloned α1A adrenoceptor (previously α1C) expressed in COS-7 cells. Particulars: bovine brain α1A in COS-7 cells; mean of 2-4 experiments in triplicate, agreed within 10%. The procedure:
(§3) Cloned animal α1 adrenoceptors
(§4) COS-7 cells were grown as monolayers in Dulbecco's modified Eagle's medium (DMEM), supplemented with 25 mM glucose, 10% bovine calf serum, 100 units/ml penicillin and 100 μg/ml streptomicyn sulfate.
(§5) Transfected cells from colture flask were washed two times with 5 ml phosphate buffered saline (PBS), scraped into 2 ml of 5 mM Tris-HCl, pH 7.4, containing 5 mM EDTA and 10 μM leupeptin, and lysed by sonication. The cell lysates were pelleted at 30000xg for 15 min at 4° C. and washed three times with 10 ml ice-cold 50 mM Tris-HCl, pH 7.4. Membranes were resuspended in 50 mM Tris-HCl, pH 7.4, containing 10 μM pargyline and 0.1% ascorbic acid, quickly frozen and stored at -70° C. until utilized.
(§6) Radioligand binding assays
Non-specific binding was determined in presence of 100 μM phentolamine. The reaction mixture was incubated for 30 min at 25° C. and then stopped by the addition of ice cold Tris-HCl buffer and rapid filtration through 0.2% polyethyleneimine pretreated Whatman GF/B fiber filters using Brandel cell harvester. The filters were then washed with 3×3 ml of ice-cold buffer and the radioactivity retained on the filters was counted in 10 ml of Filter Count (Packard) in a liquid scintillation spectrometer with a counting efficacy of 40%.
The inhibition of specific binding of the radioligands by the tested drugs was analyzed to estimate the IC50 value by using the non-linear curve-fitting program Allfit [A. De Lean et al., Am. J. Physiol.

Another data set concerns the target T2, cloned α1B adrenoceptor (Mesocricetus auratus, UniProt P18841).
T2 sequence (P18841 1-515): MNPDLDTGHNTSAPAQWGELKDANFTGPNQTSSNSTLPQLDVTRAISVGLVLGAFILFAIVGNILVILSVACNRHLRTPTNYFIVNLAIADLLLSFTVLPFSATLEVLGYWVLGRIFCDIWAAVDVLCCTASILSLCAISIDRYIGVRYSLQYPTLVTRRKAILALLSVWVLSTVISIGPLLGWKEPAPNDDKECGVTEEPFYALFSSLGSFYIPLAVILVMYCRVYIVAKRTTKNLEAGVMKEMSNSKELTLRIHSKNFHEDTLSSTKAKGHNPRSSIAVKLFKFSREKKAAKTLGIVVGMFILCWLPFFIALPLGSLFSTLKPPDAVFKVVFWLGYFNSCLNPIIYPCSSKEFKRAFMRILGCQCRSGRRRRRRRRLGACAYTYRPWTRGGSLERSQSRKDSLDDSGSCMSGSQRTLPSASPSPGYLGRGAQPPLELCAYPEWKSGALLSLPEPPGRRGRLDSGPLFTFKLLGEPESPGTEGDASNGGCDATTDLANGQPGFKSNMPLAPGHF
As to the kind of experiment: biochemical. It is filed as binding. The conditions noted are these: syrian hamster α1B in COS-7 cells; mean of 2-4 experiments in triplicate, agreed within 10%. Here is the method: as §3, §4, §5, §6
(§7) Non-specific binding was determined in presence of 100 μM phentolamine. […] The filters were then washed with 3×3 ml of ice-cold buffer and the radioactivity retained on the filters was counted in 10 ml of Filter Count (Packard) in a liquid scintillation spectrometer with a counting efficacy of 40%.
(§8) The inhibition of specific binding of the radioligands by the tested drugs was analyzed to estimate the IC50 value by using the non-linear curve-fitting program Allfit [A. De Lean et al., Am. […]

For another data set, the target named is T3, cloned α1D adrenoceptor (Rattus norvegicus, UniProt P23944).
T3 construct: expressed in transfected cells; host or cells: COS-7 (transient)
T3 sequence (P23944 1-561): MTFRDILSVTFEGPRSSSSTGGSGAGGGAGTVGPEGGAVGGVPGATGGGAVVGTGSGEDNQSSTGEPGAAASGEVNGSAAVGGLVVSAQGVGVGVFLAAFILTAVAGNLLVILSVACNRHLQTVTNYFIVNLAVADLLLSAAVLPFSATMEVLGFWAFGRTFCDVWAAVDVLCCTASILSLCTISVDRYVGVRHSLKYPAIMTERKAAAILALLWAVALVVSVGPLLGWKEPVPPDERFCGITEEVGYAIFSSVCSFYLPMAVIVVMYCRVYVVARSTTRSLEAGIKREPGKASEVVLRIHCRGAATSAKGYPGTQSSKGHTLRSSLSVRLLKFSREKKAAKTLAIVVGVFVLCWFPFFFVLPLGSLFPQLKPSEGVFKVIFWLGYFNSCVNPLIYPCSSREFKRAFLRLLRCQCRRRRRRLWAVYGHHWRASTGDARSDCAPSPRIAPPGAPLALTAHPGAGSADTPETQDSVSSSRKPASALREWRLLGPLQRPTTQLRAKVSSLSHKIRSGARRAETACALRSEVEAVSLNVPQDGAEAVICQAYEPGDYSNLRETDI
The experiment in a line: Radioligand binding, cloned α1D adrenoceptor (previously α1A/D) expressed in COS-7 cells. The conditions noted are these: rat brain α1D in COS-7 cells; mean of 2-4 experiments in triplicate, agreed within 10%. Here is the method: as §3, §4, §5, §6, §7, §8

[4] abbreviates: ip, mice, intraperitoneal, mortality 7 days after administration, read-out: DL50 i.p.
Where [5] appears, read: mice, oral, mortality 7 days after administration, read-out: DL50 p.o.

`COc1cc2nc(N3CCN(C(=O)CC(=O)c4ccccc4)CC3)nc(N)c2cc1OC` [Example 13, 4-Amino-6,7-dimethoxy-2-[4-(2-benzoylacetyl)-1-piperazinyl]-quinazoline]: the IC50 (as a rule, the concentration that inhibits the measured activity by half) in data set [1] turned out to be 7 nM. In addition, the LD50 at 168 h in “in vivo” (setting [4]) was 142 mg/kg; in “in vivo” (setting [5]), over 3000 mg/kg. The values for the ED25 in data set [2] and in data set [3] were 0.056 mg/kg and 2.42 mg/kg, respectively.
On to `COc1cc2nc(N3CCN(C(=O)COc4c(OC)cccc4C(C)C)CC3)nc(N)c2cc1OC.Cl` [Example 24, 4-Amino-6,7-dimethoxy-2-{4-[(2-methoxy-6-isopropylphenoxy)acetyl]-1-piperazinyl}-quinazoline hydrochloride], for which the IC50 in data set [1] was found to be 28 nM; at cloned α1A adrenoceptor, 17.2 nM. Further, the figures for the LD50 at 168 h in the data set “in vivo” (ip) and in the data set “in vivo” (po) were 268 mg/kg and over 3000 mg/kg, respectively.
Consider `COc1cc2nc(N3CCN(C(=O)C(C)Oc4c(OC)cccc4C(C)C)CC3)nc(N)c2cc1OC.Cl` (centres unmarked) [Example 26, 4-Amino-6,7-dimethoxy-2-{4-[2-(2-methoxy-6-isopropylphenoxy)propionyl]-1-piperazinyl}-quinazoline hydrochloride], for which the IC50 in data set [1] was 123 nM. For the same molecule, the LD50 at 168 h is 115 mg/kg in the data set “in vivo” (setting [4]) and 1960 mg/kg in “in vivo” (setting [5]).
The corresponding values for `COc1cc2nc(N(C)Cc3ccccc3)nc(N)c2cc1OC` [Example 28, 4-Amino-6,7-dimethoxy-2-(N-benzyl-N-methylamino)-guinazoline hydrochloride] are 70 nM, 89 mg/kg and 293 mg/kg.
The corresponding values for `COc1cc2nc(N(C)CCC(c3ccccc3)c3ccccc3)nc(N)c2cc1OC` [Example 29, 4-Amino-6,7-dimethoxy-2-(N-methyl-3,3-diphenylpropylamino)-guinazoline hydrochloride] are 85 nM, 163 mg/kg and over 2000 mg/kg.
For `COc1cc2nc(N(C)CCCN3CCN(c4ccccc4OC)CC3)nc(N)c2cc1OC.Cl.Cl.O.O` [Example 31, 4-Amino-6,7-dimethoxy-2-{N-methyl-N-{3-[4-(2-methoxyphenyl)-1-piperazinyl]propyl}amino}-quinazoline dihydrochloride dihydrate] the same measures were 12 nM, 70 mg/kg and over 2000 mg/kg.
In the case of `COc1cc2nc(N3CCC(c4ccccc4)(c4ccccc4)CC3)nc(N)c2cc1OC` [Example 32, 4-Amino-6,7-dimethoxy-2-(4,4-diphenyl-1-piperidinyl)-guinazoline hydrochloride . 0.65 H2 O], the IC50 in data set [1] is 259 nM. For the same molecule, the LD50 at 168 h in “in vivo” (setting [4]) was over 500 mg/kg; in “in vivo” (setting [5]), over 2000 mg/kg.
Turning to `COc1ccc(CC2c3cc(OC)c(OC)cc3CCN2c2nc(N)c3cc(OC)c(OC)cc3n2)cc1OC` (centres unmarked) [Example 33, 4-Amino-6,7-dimethoxy-2-[1-(3,4-dimethoxybenzyl)-6,7-dimethoxy-1,2,3,4-tetrahydroisoguinolin-2-yl]-quinazoline hydrochloride hydrate], the IC50 came to 287 nM in data set [1], 950 nM on cloned α1A adrenoceptor, 206 nM against cloned α1B adrenoceptor and 1550 nM on cloned α1D adrenoceptor. For the same molecule, the LD50 at 168 h in the data set “in vivo” (setting [4]) is 884 mg/kg; in the data set “in vivo” (setting [5]), over 3000 mg/kg.
With `COc1cc2nc(N3CCN(C(=O)C4CCCO4)CC3)nc(N)c2cc1OC` (centres unmarked) [Terazosin, reference compound], the IC50 turned out to be 66.6 nM on cloned α1A adrenoceptor and 106 nM at cloned α1D adrenoceptor.
